According to US20250049929A1, “NOVEL TETRAHYDROQUINOLINES AND PROTEOLYSIS TARGETING CHIMERA (PROTACS) COMPRISING THEM AS DEGRADERS OF SMARCA” (Boehringer Ingelheim International GmbH, priority 2021, published 2025):
Like-named read-outs stand apart in the source and are kept apart here.

Experiments:
SMARCA2BD = molecular target: T1, SMARCA2BD (Homo sapiens, UniProt P51531); experiment: Binary SMARCA2 binding affinity determination (A2 binary): SMARCA2 SPR binding experiments
T1 construct: the SMARCA2BD prepared at 0.5-0.7 mg/mL in coupling buffer
T1 sequence (P51531 1373-1493 isoform P51531-2 limits assumed): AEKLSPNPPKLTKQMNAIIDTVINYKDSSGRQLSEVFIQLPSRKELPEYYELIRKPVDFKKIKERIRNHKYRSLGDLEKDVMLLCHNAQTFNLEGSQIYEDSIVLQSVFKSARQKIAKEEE
Description: Binary SMARCA2 Binding Affinity Determination (A2 Binary [nM]):
SMARCA2 SPR Binding Experiments
SPR experiments were performed on Biacore 8K or T200 instruments (GE Healthcare). Immobilization of target protein was carried out at 25° C. on a CM5 chip using amine coupling (EDC/NHS, GE Healthcare) in HBS-P+ running buffer, containing 2 mM TCEP, pH 7.4. […] The surface was deactivated using 1 M ethanolamine.
All interaction experiments were performed at 6° C. in running buffer containing 20 mM TRIS, 150 mM potassium chloride, 2 mM magnesium chloride, 2 mM TCEP, 0.005% TWEEN 20, 1% dimethyl sulfoxide; pH 8.3. Sensorgrams from reference surfaces and blank injections were subtracted from the raw data prior to data analysis using Biacore T200 or Biacore 8K evaluation software. Sensorgrams recorded at different compound concentrations in multi-cycle experiments were fitted using a 1:1 interaction model, with a term for mass-transport included.

SMARCA4 = molecular target: T2, SMARCA4 (Homo sapiens, UniProt P51532); experiment: SMARCA4 degradation analysis by imaging in RKO cells (DC50 A4); assay type: cell-based; settings: tables 69, 70, 73, 76-78
T2 construct: endogenous in cells; host or cells: RKO cells (CRL-2577, ATCC)
T2 sequence (P51532 whole entry): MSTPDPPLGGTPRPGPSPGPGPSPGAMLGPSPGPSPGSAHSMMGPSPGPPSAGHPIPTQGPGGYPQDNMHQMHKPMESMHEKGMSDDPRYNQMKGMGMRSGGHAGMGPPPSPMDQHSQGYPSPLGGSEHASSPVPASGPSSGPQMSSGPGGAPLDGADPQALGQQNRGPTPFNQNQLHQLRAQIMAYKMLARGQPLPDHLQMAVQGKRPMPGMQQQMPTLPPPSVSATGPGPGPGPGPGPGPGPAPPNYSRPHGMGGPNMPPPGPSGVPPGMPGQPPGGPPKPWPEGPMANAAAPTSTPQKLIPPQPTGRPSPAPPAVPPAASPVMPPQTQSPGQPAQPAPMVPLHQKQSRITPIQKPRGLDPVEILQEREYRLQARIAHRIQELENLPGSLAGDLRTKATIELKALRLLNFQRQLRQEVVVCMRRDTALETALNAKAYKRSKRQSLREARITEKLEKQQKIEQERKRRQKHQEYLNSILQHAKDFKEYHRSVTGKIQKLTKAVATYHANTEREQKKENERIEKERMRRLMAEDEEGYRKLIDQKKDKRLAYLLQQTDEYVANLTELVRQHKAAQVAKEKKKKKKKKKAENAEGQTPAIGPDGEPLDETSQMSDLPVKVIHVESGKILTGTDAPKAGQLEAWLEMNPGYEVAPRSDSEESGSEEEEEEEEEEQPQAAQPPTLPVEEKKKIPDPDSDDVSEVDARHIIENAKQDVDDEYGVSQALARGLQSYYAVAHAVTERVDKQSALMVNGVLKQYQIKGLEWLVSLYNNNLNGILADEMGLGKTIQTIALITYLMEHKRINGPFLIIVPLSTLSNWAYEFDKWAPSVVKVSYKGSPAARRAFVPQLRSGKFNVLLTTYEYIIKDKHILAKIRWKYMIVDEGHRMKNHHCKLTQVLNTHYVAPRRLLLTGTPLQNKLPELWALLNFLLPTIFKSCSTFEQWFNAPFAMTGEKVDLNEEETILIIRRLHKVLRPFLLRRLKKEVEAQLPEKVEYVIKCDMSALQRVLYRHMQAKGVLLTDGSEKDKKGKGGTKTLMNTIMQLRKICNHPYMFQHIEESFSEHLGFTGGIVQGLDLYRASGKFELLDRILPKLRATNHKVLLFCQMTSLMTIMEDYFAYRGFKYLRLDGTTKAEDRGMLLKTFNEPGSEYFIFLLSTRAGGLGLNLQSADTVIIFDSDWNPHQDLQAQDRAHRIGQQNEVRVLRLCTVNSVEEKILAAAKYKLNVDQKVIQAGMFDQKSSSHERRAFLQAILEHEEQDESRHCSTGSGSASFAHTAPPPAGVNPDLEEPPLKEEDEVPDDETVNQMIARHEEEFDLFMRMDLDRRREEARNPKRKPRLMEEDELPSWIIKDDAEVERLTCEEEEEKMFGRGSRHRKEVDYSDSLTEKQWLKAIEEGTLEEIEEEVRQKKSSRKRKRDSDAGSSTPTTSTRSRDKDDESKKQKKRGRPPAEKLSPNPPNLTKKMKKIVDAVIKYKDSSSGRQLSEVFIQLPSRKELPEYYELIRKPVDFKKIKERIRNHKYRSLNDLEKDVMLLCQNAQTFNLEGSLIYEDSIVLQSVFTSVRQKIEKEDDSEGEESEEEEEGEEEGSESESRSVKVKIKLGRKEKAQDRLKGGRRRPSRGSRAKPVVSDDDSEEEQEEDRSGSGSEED
Description: (§1) Determination of SMARCA2 and SMARCA4 Degradation (DC50 A2 and A4 [nM])
(§2) Protein Degradation Assays for SMARCA2 and SMARCA4
(§3) For degradation analysis by imaging, 1250 RKO cells (CRL-2577, ATCC) per well were seeded into 60 μL DMEM (Sigma Aldrich) supplemented with 10% FBS (Hyclone) in 384-well flat bottom plates (CellCarrier Ultra, Perkin Elmer) and incubated at 37° C. and 5% CO2 in a humidified atmosphere overnight. Compounds were added the next day using an Access Labcyte Workstation with a Labcyte Echo 550 or 555 acoustic dispenser and incubated with the cells for 4 or 24 h. Cells were fixed by adding 25 μL fixation buffer (7.4% formaldehyde (Sigma Aldrich F8775), 0.2% Triton TX100 (Sigma Aldrich F93443) in PBS) for 15 minutes at room temperature. After aspirating the fixing solution, the cells were washed once with 25 μL PBS and 25 μL of Blocking Buffer (10% Goat Serum in PBS) were added to each well and incubated for 30 minutes. Cells were washed with PBS and incubated with 20 μL mouse anti-Smarca4 (BRG1) antibody (Cell Signaling #52251) or rabbit anti-Smarca2 (BRM) antibody (Sigma Aldrich HPA029981) in blocking solution (PBS with 10% FCS) for ca. 2-4 h at RT. For detection of the nuclei, 25 μL of 5 μg/mL Hoechst 33342 (stock 10 mg/mL in H2O; Invitrogen H1399) were added together with Alexa Fluor 647 goat anti-mouse IgG (Invitrogen A-21235) or Alexa Fluor 488 goat anti-rabbit IgG (Invitrogen A-11034) in blocking solution and incubated for 60 min at RT. The cell layer was washed with 25 μL PBS, the wells were filled with 25 μL PBS and the plates sealed with an adhesive sheet. The mean intensity at 488 or 647 nm in the nucleus was measured using an Opera Phenix Plus High-Content Screening System (Perkin Elmer), values were normalized to the background and DMSO control and DC50 values were calculated and analyzed using a four-parametric logistic model.

SMARCA2 = molecular target: T3, SMARCA2 (Homo sapiens, UniProt P51531); experiment: SMARCA2 degradation analysis by imaging in RKO cells (DC50 A2); assay type: cell-based; settings: tables 69, 70, 73, 76-78
T3 construct: endogenous in cells; host or cells: RKO cells (CRL-2577, ATCC)
T3 sequence (P51531 whole entry): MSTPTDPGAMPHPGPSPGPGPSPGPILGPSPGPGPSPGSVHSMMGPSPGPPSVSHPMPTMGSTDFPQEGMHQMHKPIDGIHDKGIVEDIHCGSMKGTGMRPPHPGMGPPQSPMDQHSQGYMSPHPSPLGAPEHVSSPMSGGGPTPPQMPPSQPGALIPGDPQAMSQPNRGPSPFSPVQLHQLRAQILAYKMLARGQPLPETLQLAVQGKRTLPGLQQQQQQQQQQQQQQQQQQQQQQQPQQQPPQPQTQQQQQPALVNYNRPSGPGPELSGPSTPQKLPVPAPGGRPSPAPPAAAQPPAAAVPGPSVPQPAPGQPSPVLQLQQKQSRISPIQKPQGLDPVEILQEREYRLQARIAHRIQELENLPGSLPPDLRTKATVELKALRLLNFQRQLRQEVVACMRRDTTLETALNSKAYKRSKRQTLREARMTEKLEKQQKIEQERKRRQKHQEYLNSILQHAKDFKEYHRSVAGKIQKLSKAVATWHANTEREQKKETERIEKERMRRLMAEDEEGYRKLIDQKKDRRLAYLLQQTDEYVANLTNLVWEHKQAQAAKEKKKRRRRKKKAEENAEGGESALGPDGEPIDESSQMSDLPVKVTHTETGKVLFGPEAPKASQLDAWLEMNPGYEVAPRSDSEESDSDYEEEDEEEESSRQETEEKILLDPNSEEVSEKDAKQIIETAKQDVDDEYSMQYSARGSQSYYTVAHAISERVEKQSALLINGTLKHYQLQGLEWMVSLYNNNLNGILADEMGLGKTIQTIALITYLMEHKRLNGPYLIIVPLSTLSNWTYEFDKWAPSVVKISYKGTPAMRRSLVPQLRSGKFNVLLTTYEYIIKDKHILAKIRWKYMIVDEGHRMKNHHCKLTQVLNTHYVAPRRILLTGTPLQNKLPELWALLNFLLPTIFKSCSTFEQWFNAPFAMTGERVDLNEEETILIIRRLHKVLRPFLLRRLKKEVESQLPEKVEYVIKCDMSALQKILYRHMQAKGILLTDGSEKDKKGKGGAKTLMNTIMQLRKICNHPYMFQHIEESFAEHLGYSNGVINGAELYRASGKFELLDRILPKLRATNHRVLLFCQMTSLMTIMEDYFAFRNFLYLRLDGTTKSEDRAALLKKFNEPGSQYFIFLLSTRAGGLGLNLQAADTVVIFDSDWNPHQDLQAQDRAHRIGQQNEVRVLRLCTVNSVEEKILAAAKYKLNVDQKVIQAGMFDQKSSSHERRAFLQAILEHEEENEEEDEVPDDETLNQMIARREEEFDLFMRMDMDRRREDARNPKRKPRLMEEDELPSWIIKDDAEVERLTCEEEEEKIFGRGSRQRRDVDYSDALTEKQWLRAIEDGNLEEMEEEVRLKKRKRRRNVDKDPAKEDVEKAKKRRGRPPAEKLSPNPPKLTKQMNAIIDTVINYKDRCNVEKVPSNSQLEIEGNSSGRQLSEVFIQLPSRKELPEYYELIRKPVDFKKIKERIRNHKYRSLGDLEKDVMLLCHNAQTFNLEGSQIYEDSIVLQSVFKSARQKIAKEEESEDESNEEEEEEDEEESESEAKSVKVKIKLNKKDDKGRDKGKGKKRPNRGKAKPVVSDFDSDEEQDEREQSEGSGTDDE
Description: as §1, §2, §3

[1] = binary SMARCA2 binding affinity, SPR at 6° C., pH 8.3, read-out: A2 binary

| Kd (SMARCA2BD; [1]) [nM] | DC50 (SMARCA4) [nM] | DC50 (SMARCA2) [nM] | SMILES | Kd (SMARCA2BD) [nM] |
| --- | --- | --- | --- | --- |
|  | > 833 | 13 | Cc1ncsc1-c1ccc([C@H](CO[C@H](C)CN2CCC(c3ccc4c(c3)n(C3C[C@H](C)[C@@H](C)C3)c3nc(=O)c5c(Br)cccc5n43)CC2)NC(=O)[C@@H]2C[C@@H](O)CN2C(=O)[C@@H](NC(=O)C2(F)CC2)C(C)(C)C)cc1 [Compound 42p] |  |
|  | 1 | 0.4 | Cc1ncsc1-c1ccc([C@H](CCCN2CCC(c3ccc4c(c3)n(C3CCCC3)c3nc(=O)c5c(Br)cccc5n43)CC2)NC(=O)[C@@H]2C[C@@H](O)CN2C(=O)[C@@H](NC(=O)C2(F)CC2)C(C)(C)C)cc1 [Compound 42q] |  |
|  | 27 | 2 | Cc1ncsc1-c1ccc([C@H](CO[C@H](C)CN2CCC(c3ccc4c(c3)n(C3CCCC3)c3nc(=O)c5c(Cl)cccc5n43)CC2)NC(=O)[C@@H]2C[C@@H](O)CN2C(=O)[C@@H](NC(=O)C2(F)CC2)C23CC4CC(CC(C4)C2)C3)cc1 [Compound 42r] |  |
|  | 8 | 0.7 | Cc1ncsc1-c1ccc([C@H](COCCCCCN2CCC(c3ccc4c(c3)n(C3CCCC3)c3nc(=O)c5c(Br)cccc5n43)CC2)NC(=O)[C@@H]2C[C@@H](O)CN2C(=O)[C@@H](NC(=O)C2(F)CC2)C(C)(C)C)cc1 [Compound 42s] |  |
|  | 67 | 3 | Cc1ncsc1-c1ccc([C@H](COCCN2CCC(c3cc4c(cc3OC[C@@H]3CCCO3)n3c5cccc(Br)c5c(=O)nc3n4C3CCCC3)CC2)NC(=O)[C@@H]2C[C@@H](O)CN2C(=O)[C@@H](NC(=O)C2(F)CC2)C(C)(C)C)cc1 [Compound 42t] |  |
|  | 0.7 | 0.3 | Cc1ncsc1-c1ccc([C@H](C[C@@H](C)CN2CCC(c3ccc4c(c3)n(C3CCCC3)c3nc(=O)c5c(Br)cccc5n43)CC2)NC(=O)[C@@H]2C[C@@H](O)CN2C(=O)[C@@H](NC(=O)C2(F)CC2)C(C)(C)C)cc1 [Compound 42u] |  |
|  | > 833 | 11 | Cc1ncsc1-c1ccc([C@H](CO[C@@H](CN2CCC(c3ccc4c(c3)n(C3CCCC3)c3nc(=O)c5c(Br)cccc5n43)CC2)C2CC2)NC(=O)[C@@H]2C[C@@H](O)CN2C(=O)[C@@H](NC(=O)C2(F)CC2)C(C)(C)C)cc1 [Compound 42v] |  |
|  | 36 | 11 | CCOC(=O)c1ncsc1-c1ccc([C@H](CCCN2CCC(c3ccc4c(c3)n(C3CCCC3)c3nc(=O)c5c(Br)cccc5n43)CC2)NC(=O)[C@@H]2C[C@@H](O)CN2C(=O)[C@@H](NC(=O)C2(F)CC2)C(C)(C)C)cc1 [Compound 42w] |  |
|  | 2 | 0.3 | Cc1ncsc1-c1ccc([C@H](CCCN2CCC(c3ccc4c(c3)n(C3CCCC3)c3nc(=O)c5c(N)cccc5n43)CC2)NC(=O)[C@@H]2C[C@@H](O)CN2C(=O)[C@@H](NC(=O)C2(F)CC2)C(C)(C)C)cc1 [Compound 42x] |  |
|  | 101 | 6 | Cc1ncsc1-c1ccc([C@H](CO[C@H](C)CN2CCC(c3ccc4c(c3)n(C3CCCC3)c3nc(=O)c5c(Br)cccc5n43)CC2)NC(=O)[C@@H]2C[C@@H](O)CN2C(=O)[C@@H](NC(=O)C2(N(C)C)CC2)C(C)(C)C)cc1 [Compound 42y] |  |
|  | 41 | 20 | Cc1ncsc1-c1ccc([C@H](CCCN2CCC(c3cc4c(cc3OCCOCCN3CCOCC3)n3c5cccc(Br)c5c(=O)nc3n4C3CCCC3)CC2)NC(=O)[C@@H]2C[C@@H](O)CN2C(=O)[C@@H](NC(=O)C2(F)CC2)C(C)(C)C)cc1 [Compound 42z] |  |

Continued, compound first:

| SMILES | Kd (SMARCA2BD; [1]) [nM] | DC50 (SMARCA4) [nM] | DC50 (SMARCA2) [nM] | Kd (SMARCA2BD) [nM] |
| --- | --- | --- | --- | --- |
| O=c1nc2n(C3CCCC3)c3cc(C4CCNCC4)ccc3n2c2cccc(Br)c12 [Compound 28a, 4-bromo-7-cyclopentyl-9-(4-piperidyl)benzimidazolo[1,2-a]quinazolin-5-one] |  |  |  | 48 |
| CCn1c2cc(C3CCNCC3)c(OCCOCCOC)cc2n2c3cccc(Br)c3c(=O)nc12 [Compound 28k] | 45 |  |  |  |
| N[C@H]1CC[C@H](c2ccc3c(c2)n(C2CCCC2)c2nc(=O)c4c(Br)cccc4n32)CC1 [Compound 28m] | 29 |  |  |  |
| C[C@H]1CNCCN1c1ccc2c(c1)n(C1CCCC1)c1nc(=O)c3c(Br)cccc3n21 [Compound 28o] | 40 |  |  |  |
| C[C@@H]1CNCCN1c1ccc2c(c1)n(C1CCCC1)c1nc(=O)c3c(Br)cccc3n21 [Compound 28p] | 55 |  |  |  |
| O=c1nc2n(C3CCCC3)c3cc(N4CCNCC4)ccc3n2c2cccc(Br)c12 [Compound 28r] | 44 |  |  |  |
| O=c1nc2n(C3CCCC3)c3cc(N4C[C@@H]5C[C@H]4CN5)ccc3n2c2cccc(Br)c12 [Compound 28s] | 70 |  |  |  |
| O=c1nc2n(C3CCCC3)c3cc(C4CCNCC4)c(OC[C@@H]4CCCO4)cc3n2c2cccc(Br)c12 [Compound 28v] | 45 |  |  |  |
| COCCOCCOc1cc2c(cc1C1CCNCC1)n(C1CCCC1)c1nc(=O)c3c(Br)cccc3n21 [Compound 28y] | 50 |  |  |  |
| CC(C)(C)OC(=O)N1CCC(c2ccc3c(c2)n(C2CCCC2)c2nc(=O)c4c(N)cccc4n32)CC1 [Compound 30a] | 541 |  |  |  |
| CC(C)(C)OC(=O)Oc1cc2c(cc1C1CCN(C(=O)OC(C)(C)C)CC1)n(C1CCCC1)c1nc(=O)c3c(Br)cccc3n21 [Compound 33a] | 157 |  |  |  |
